From US20050208151A1, “Treatment of rheumatoid arthritis with FLIP antagonists” (Entelos, Inc., priority 2003, published 2005)

Columns and labels:
[1] = tested on: MNC and macrophages from RA synovial fluid; assay: uptake of FITC-labeled oligonucleotides by flow cytometry; assay type: cell-based, human; conditions: 10-20 μM, 24h, 70% ETOH fixed cells
Experimental: MNC and macrophages from RA synovial fluid are incubated for 24h with FITC-labeled antisense phosphorothioate oligodeoxynucleotides (10-20 μM) comprising the FLIP initiation codon (5′-[…]-3′) (SEQ ID NO: 2). A nonsense oligonucleotides is used as negative control (for example; 5′-TGGATCCGACATGTCAGA-3′) (SEQ ID NO: 3). Uptake of the FITC-labeled oligonucleotides are measured by flow cytometry on 70% ETOH fixed cells. A 80-90% transfection efficiency is expected. A general caspase inhibitor (e.g., 20 μM zVAD.fmk) is used as negative control in all apoptosis assays. As a positive control of macrophage apoptosis, the cells are treated with 50 μM of the phosphatidylinositol 3-kinase inhibitor LY294002 for 24 h.

rheumatoid arthritis = conditions: methotrexate treatment; level after 6 months therapy; cited from earlier work
[2] = tested on: RA patients' synovial macrophages; conditions: Fas agonist with vs without BIS, which blocked FLIP expression; cited from earlier work

5′-GACTTCAGCAGACATCCTAC-3′ (DNA, all phosphorothioate, methylation of C not given here; FITC label; listed as Homo sapiens) [FITC-labeled antisense phosphorothioate oligodeoxynucleotides comprising the FLIP initiation codon]
transfection efficiency (uptake of FITC-labeled oligonucleotides) [1]: 80-90%

CN(Cc1cnc2nc(N)nc(N)c2n1)c1ccc(C(=O)N[C@@H](CCC(=O)O)C(=O)O)cc1 [Methotrexate, methotrexate]
decrease in rate of cartilage degradation (rheumatoid arthritis): approximately 17% | decrease in synovial cell density (rheumatoid arthritis): approximately 33%

CN(C)CCCn1cc(C2=C(c3c[nH]c4ccccc34)C(=O)NC2=O)c2ccccc21 [bisinodylmaleimide I]
increase in macrophage apoptosis [2]: ~9 fold
